Test results taken from patent publication US20220162610A1, “NOVEL RNA TRANSCRIPT” (PTC Therapeutics, Inc., priority 2020, published 2022).

Assays:
HTT pre-mRNA intron 49 = experiment: Ampliseq Junction Expression Index (JEI) of HTT introns in GM04856 cells; assay type: cell-based, human; conditions: 125 nM, 24 h, vs DMSO, P<0.05
Experimental: Targeted next-generation sequencing Novel splicing events originating from HTT pre-mRNA upon compound treatment were further analyzed using AmpliSeq technology. The GM04856 cells were plated in 6-well plates at 500,000 cells/well in 2000 μl DMEM/10% FBS and incubated for 6 hours in a cell culture incubator (37° C., 5% CO2, 100% relative humidity). Cells were then treated in triplicate with HTT-C1 at 125 nM (in 0.5% DMSO) for 24 hours. Following treatment, RNA was purified using an RNeasy Mini Kit (Qiagen) according to the manufacturer's protocol. Novel splice variants induced by the HTT-C1 compound were detected using Ion AmpliSeq technology (Life Technologies), a PCR-based target enrichment and next-generation sequencing platform. PCR enrichment of HTT exon targets was accomplished by applying a custom HTT AmpliSeq panel. The panel consisted of two separate PCR primer pools, each producing 33 amplicons. […]
For data analysis, Ampliseq reads (Fastq format) were mapped to human genome (hg19) using tophat2 which allowed identification of both known and novel splice junctions. For each one of the 66 introns of HTT gene, a Junction Expression Index (JEI) was calculated using the percent of reads supporting the splicing of the exact annotated intron among all reads supporting the splicing isoforms using either the 5′ splice or/and 3′ splice site of that intron (FIG. 3B). […]

mouse HTT protein = experiment: Mouse HTT protein expression under compound treatment; assay type: cell-based; conditions: at concentrations that reduce human HTT protein expression
human HTT protein = experiment: Pharmacodynamic study in Hu97/18 mice, HTT protein in tissues, CSF and plasma; assay type: in vivo
Experimental: Test mice were euthanised and brain, muscle (quadriceps), and blood samples were harvested 2 hours after the last dose on Day 20. Prior to analysis, crude total protein from brain and muscle tissue samples was prepared by sample lysis in MSD® assay buffer 1 (MSD®) with Complete™ Protease Inhibitor Cocktail added (Roche Diagnostics). Tissues were then homogenised using TissueLyser II (Qiagen) plus a 5 mm stainless steel bead. The lysate was clarified by centrifugation at 16,000×g for 20 minutes at 4° C. and the total protein concentration quantified with the Pierce™ BCA Protein Assay Kit (Thermo Scientific) according to the manufacturer's instructions. Whole blood was collected by cardiac puncture into EDTA collection tubes. An aliquot (100-200 μL) was added to 1.5 mL of eBioscience™ 1× Red Blood Cell Lysis Buffer (Thermo Fisher) and mixed well for 5 minutes before collecting the white blood cells (WBC) by centrifugation at 400×g. The supernatant was discarded, and the pellet of WBCs was frozen in liquid nitrogen and stored at −70° C. Brain and muscle sample lysates were analysed for hHTT and KRAS protein expression using the ECL protein assay (described previously); using the same method WBC samples were also analysed for hHTT expression but not KRAS.
Hu97/Hu18: Both sexes of 2-4 month old Hu97/181 mice were used. […]

Structure (SMILES)	reduction of junction expression index (JEI) in intron 49 (HTT pre-mRNA intron 49) [%]	mouse HTT protein expression (mouse HTT protein)	HTT protein in striatum and cortex (human HTT protein; 2, 6 or 12 mg/kg daily for 21 days)	HTT protein within the brain and peripheral tissues (human HTT protein; Hu97/18 mice)
CC1(C)CC(Oc2ccc(-c3ccc(-c4ccnc(O)c4)cc3O)nn2)CC(C)(C)N1 [HTT-C1]	> 25	no effect		
CCN1CCC(c2cc3c(F)cc(-c4cc(C)c5nc(C)cn5n4)cc3nn2)CC1 [HTT-D3]			uniform HTT protein reduction	dose dependent and more equitable lowering of HTT protein
